Experiments:
[1] = xn = mol fraction of the nth substance listed; details: 101.3 kPa, Liquid; for speed of sound: Frequency=3 MHz, Sing-around technique in a fixed-path interferometer; for mass density: Vibrating tube method
[2] = refractive index (Na D-line) (dimensionless); xn = mol fraction of the nth substance listed; details: 101.3 kPa, Liquid, Standard Abbe refractometry

COS(=O)(=O)[O-].Cn1cc[n+](C)c1 [1,3-dimethylimidazolium methylsulfate] + CCCCCO
Details | mass density, [1] [kg/m3] | refractive index, [2] | speed of sound, [1] [m/s]
298 K, x1 = 0.1 | 884 | 1.417 | 1311
298 K, x1 = 0.35 | 1041 | 1.439 | 1448
298 K, x1 = 0.54 | 1140 | 1.454 | 1552
298 K, x1 = 0.661 | 1195 | 1.463 | 1618
298 K, x1 = 0.79 | 1250 | 1.471 | 1672
298 K, x1 = 0.931 | 1304 | 1.479 | 1751
298 K, x1 = 1 | 1329 | 1.483 | 1811
303 K, x1 = 0.1 | 879 | 1.416 | 1295
303 K, x1 = 0.35 | 1035 | 1.438 | 1432
303 K, x1 = 0.54 | 1134 | 1.452 | 1536
303 K, x1 = 0.661 | 1189 | 1.461 | 1603
303 K, x1 = 0.79 | 1243 | 1.469 | 1659
303 K, x1 = 0.931 | 1298 | 1.477 | 1738
303 K, x1 = 1 | 1322 | 1.481 | 1799
308 K, x1 = 0.1 | 875 | 1.414 | 1278
308 K, x1 = 0.35 | 1031 | 1.436 | 1417
308 K, x1 = 0.54 | 1129 | 1.451 | 1521
308 K, x1 = 0.661 | 1185 | 1.459 | 1588
308 K, x1 = 0.79 | 1239 | 1.467 | 1645
308 K, x1 = 0.931 | 1294 | 1.476 | 1725
308 K, x1 = 1 | 1319 | 1.48 | 1787
313 K, x1 = 0.1 | 871 | 1.412 | 1261
313 K, x1 = 0.35 | 1026 | 1.433 | 1401
313 K, x1 = 0.54 | 1125 | 1.448 | 1506
313 K, x1 = 0.661 | 1181 | 1.456 | 1574
313 K, x1 = 0.79 | 1235 | 1.465 | 1631
313 K, x1 = 0.931 | 1290 | 1.474 | 1713
313 K, x1 = 1 | 1315 | 1.479 | 1775

COS(=O)(=O)[O-].Cn1cc[n+](C)c1 [1,3-dimethylimidazolium methylsulfate] + CCCCO
Details | mass density, [1] [kg/m3] | refractive index, [2] | speed of sound, [1] [m/s]
298 K, x1 = 0.063 | 861 | 1.405 | 1263
298 K, x1 = 0.221 | 982 | 1.421 | 1357
298 K, x1 = 0.432 | 1108 | 1.443 | 1500
298 K, x1 = 0.64 | 1205 | 1.46 | 1617
298 K, x1 = 0.781 | 1258 | 1.47 | 1688
298 K, x1 = 0.927 | 1307 | 1.479 | 1761
298 K, x1 = 1 | 1329 | 1.483 | 1811
303 K, x1 = 0.063 | 857 | 1.401 | 1246
303 K, x1 = 0.221 | 977 | 1.418 | 1341
303 K, x1 = 0.432 | 1102 | 1.439 | 1485
303 K, x1 = 0.64 | 1198 | 1.457 | 1602
303 K, x1 = 0.781 | 1252 | 1.468 | 1675
303 K, x1 = 0.927 | 1300 | 1.477 | 1748
303 K, x1 = 1 | 1322 | 1.481 | 1799
308 K, x1 = 0.063 | 852 | 1.398 | 1229
308 K, x1 = 0.221 | 972 | 1.414 | 1325
308 K, x1 = 0.432 | 1097 | 1.435 | 1469
308 K, x1 = 0.64 | 1193 | 1.454 | 1587
308 K, x1 = 0.781 | 1248 | 1.465 | 1661
308 K, x1 = 0.927 | 1297 | 1.475 | 1735
308 K, x1 = 1 | 1319 | 1.48 | 1787
313 K, x1 = 0.063 | 848 | 1.395 | 1213
313 K, x1 = 0.221 | 967 | 1.41 | 1309
313 K, x1 = 0.432 | 1092 | 1.431 | 1454
313 K, x1 = 0.64 | 1189 | 1.45 | 1572
313 K, x1 = 0.781 | 1243 | 1.461 | 1647
313 K, x1 = 0.927 | 1293 | 1.472 | 1722
313 K, x1 = 1 | 1315 | 1.479 | 1775

COS(=O)(=O)[O-].Cn1cc[n+](C)c1 [1,3-dimethylimidazolium methylsulfate] + CCCO
Details | mass density, [1] [kg/m3] | refractive index, [2] | speed of sound, [1] [m/s]
298 K, x1 = 0.039 | 843 | 1.389 | 1225
298 K, x1 = 0.208 | 995 | 1.413 | 1348
298 K, x1 = 0.382 | 1107 | 1.434 | 1481
298 K, x1 = 0.561 | 1193 | 1.452 | 1605
298 K, x1 = 0.702 | 1246 | 1.464 | 1684
298 K, x1 = 0.912 | 1307 | 1.477 | 1773
298 K, x1 = 1 | 1329 | 1.483 | 1811
303 K, x1 = 0.039 | 839 | 1.387 | 1208
303 K, x1 = 0.208 | 989 | 1.41 | 1332
303 K, x1 = 0.382 | 1100 | 1.432 | 1465
303 K, x1 = 0.561 | 1186 | 1.45 | 1590
303 K, x1 = 0.702 | 1239 | 1.461 | 1670
303 K, x1 = 0.912 | 1301 | 1.476 | 1760
303 K, x1 = 1 | 1322 | 1.481 | 1799
308 K, x1 = 0.039 | 834 | 1.385 | 1191
308 K, x1 = 0.208 | 984 | 1.408 | 1316
308 K, x1 = 0.382 | 1095 | 1.429 | 1450
308 K, x1 = 0.561 | 1181 | 1.447 | 1575
308 K, x1 = 0.702 | 1234 | 1.459 | 1656
308 K, x1 = 0.912 | 1297 | 1.474 | 1747
308 K, x1 = 1 | 1319 | 1.48 | 1787
313 K, x1 = 0.039 | 830 | 1.382 | 1175
313 K, x1 = 0.208 | 979 | 1.404 | 1300
313 K, x1 = 0.382 | 1090 | 1.426 | 1434
313 K, x1 = 0.561 | 1176 | 1.444 | 1561
313 K, x1 = 0.702 | 1229 | 1.456 | 1642
313 K, x1 = 0.912 | 1293 | 1.472 | 1734
313 K, x1 = 1 | 1315 | 1.479 | 1775

— the NIST ThermoML archive (doi:10.1016/j.jct.2017.02.022)
